From patent US9187458B2, “Cyanoquinoline derivatives” (Tianjin Hemay Bio-Tech Co., LTD., priority 2010, dated 2015) come the findings set out here.

What all share (assay type): cell-based
The subject of test [1] is CCRF-CEM/T cells. Briefly: CCRF-CEM/T Cell Growth Inhibition Test (MTT Assay). As to conditions: Homo sapiens, CCRF-CEM/T cells (resistant to paclitaxel), 72 h incubation. The protocol: CCRF-CEM/T Cell Growth Inhibition Test (MTT Assay)
Cell strains: CCRF-CEM/T (human acute lymphocytic cell leukemia cells);
triple lysate solution: 10% SDS, 5% isobutanol, 0.012M HCl.
1. Cells were cultured to exponential phase. The cells were suspension cells;
2. The cells were collected by centrifuge. The resulting cells were resuspended in a complete culture medium to a desired concentration. The cells suspension was implanted into a 96-well cell culture plate by 20000 cells per well. A compound was added in the wellsuch that the final volume of the system was 120 μl. The system was further incubated for 72 h under 5% CO2 at 37° C.
7. 30 μl of serum-free culture solution containing 2.5 mg/ml MTT was added in each well, and incubated for 3 h;
8. 150 μl of triple lysate solution was added in each well and placed to dissolve at the room temperature;
9. OD values were determined at 570 nM.
(§1) 1. Calculation of Relative Inhibition Ratio The inhibition ratio of a compound on cell growth=(PC−n)/(PC−NC)×100%
(§2) IC50: Concentration of a compound where inhibition ratio was 50%. IC50 values were fitted with Origin7.5.

Test [2] concerns SW620 cells. As to the kind of experiment: SW620 Cell Growth Inhibition Test (SRB Assay). Particulars: Homo sapiens, SW-620, 91 h incubation. The protocol:
SW620 Cell Growth Inhibition Test (SRB Assay)
Cell strains: SW620 (human colorectal cancer cell strains);
SRB: available from Sigmaaldrich, goods number: S9012, lot number: 047K3751. […] was reserved at the room temperature. 0.4% (w/v) of working solution was formulated with 1% of glacial acetic acid. The solution was reserved at 4° C.; anti-tumor compounds; DMSO.
Culture medium: 90% L15+10% FBS;
1. A plate (10 cm) of cells in logarithmic growth phase normally cultured was collected. The culture solution was sucked out. The plate was washed wtih 5 mL of PBS 1-2 times;
2. PBS was sucked out. […] of 0.25% pancreatin was added to infiltrate the cells for 30 s;
3. The pancreatin was sucked out. The culture plate was placed in an incubator. Digestion was carried out for about 1.5-2 min at 37° C.;
4. 4 mL of complete culture solution was added to the culture plate to stop the digestion. The cells were carefully scoured with micropipette (1 ml) to give a uniform single cell suspension;
5. Cell suspension was counted. The suspension was diluted to 1.5×10^5/ml. The resulting suspension was developed uniformly on a plate by 15000 cells/100 μl per well. The culture plate was incubated overnight under 5% CO2 at 37° C. In day 2, 100 μl of culture solution comprising a compound was added in each well, and further incubated for 91 h under 5% CO2 at 37° C.;
(§3) 6. The culture solution was sucked out. 100 uL of TCA fixed cells which were diluted to 10% were added to each well. The plate was kept in a refrigerator for 1 h at 4° C.
(§4) 7. TCA stationary liquid was sucked out. Each well was washed with 150 μL of ddH2O five times;
(§5) 8. After the stationary liquid was cleansed, the plate was dried in the air at the room temperature;
(§6) 9. 60 μL of SRB staining solution was added in each well. The well was stained for 15 min at the room temperature;
(§7) 10. The SRB staining solution was sucked out. Each well was washed with 150 μL of 1% glacial acetic acid five times;
(§8) 11. After the SRB staining solution was cleansed, the plate was dried in the air at the room temperature;
(§9) 12. 100 μL of 10 mM Tris was added in each well, the plate was vibrated to dissolve out SRB;
(§10) 13. OD values were determined at 570 nM.
To: OD values of the starting content of cells when the cells were developed on a plate;
PC: OD values of cells after normal growth in control wells without a compound;
Ti: OD values of cells after growth in test wells with a compound;
NC: Background OD values of blank wells without a compound and cells
Therefore: Ratio of cells in test wells to normal wells (% of control cell growth)=(Ti−To)/(PC−To)×100%
Ratio GI50 was concentration of a compound at the point of 50%.
Therefore: Ratio of killed cells to inoculated cells (% of killed cell)=(Ti−To)/(To−NC)×100%
LC50 was concentration point of a compound when half of the starting inoculated concentration was reached.
Concentration of a compound at this point is defined as TGI (total growth inhibition).

For test [3], the system named is NCI-H1650 cells. Briefly: NCI-H1650 Cell Growth Inhibition Test (SRB Assay). As to conditions: Homo sapiens, 72 h incubation. The protocol:
NCI-H1650 Cell Growth Inhibition Test (SRB Assay)
1. Cell strains: NCI-H1650 (human non-small cell lung cancer cell strains);
2. SRB, 0.4% (w/v) working solution was formulated with 1% glacial acetic acid and reserved at 4° C.; antitumor compounds; DMSO
1. A plate (10 cm) of cells in logarithmic growth phase normally cultured was collected;
2. The culture solution was sucked out. The plate was washed with 5 mL of PBS 1-2 times;
3. 1.5 mL of 0.25% pancreatin was added to the plate to infiltrate the cells;
4. The pancreatin was sucked out. The culture plate was placed in an incubator. Digestion was carried out for about 3 min at 37° C.;
5. 4 mL of complete culture solution was added to the culture plate to stop the digestion. The cells were carefully scoured with micropipette (1 ml) to give a uniform single cell suspension. The suspensin was implanted into a 96-well cell culture plate by 6000 cells/100 μl per well. The culture plate was incubated overnight under 5% CO2 at 37° C. In day 2, 100 μl of culture solution comprising a compound was added in each well, and further incubated for 72 h under 5% CO2 at 37° C.;
as §3, §4, §5, §6, §7, §8, §9, §10, §1, §2

Consider `N#Cc1cnc2cc(O[C@H]3CCOC3)c(NC(=O)/C=C/CN3CCCCC3)cc2c1Nc1ccc(OCc2ccccn2)c(Cl)c1` [Example 151, (S,E)-N-(4-(3-CHLORO-4-(PYRIDIN-2-YL-METHOXY)PHENYLAMINO)-3-CYANO-7-(TETRAHYDROFURAN-3-YL-OXY)QUINOLIN-6-YL)-4-(PIPERIDIN-1-YL)-BUT-2-ENAMIDE], for which the 50% inhibitory concentration (IC50) in test [1] amounted to 3600 nM. With `CN(C)C/C=C/C(=O)Nc1cc2c(Nc3ccc(OCc4ccccn4)c(Cl)c3)c(C#N)cnc2cc1OC1CCOC1` (stereo not drawn) [Example 21, (E)-N-(4-(3-CHLORO-4-(PYRIDIN-2-YL-METHOXY)PHENYLAMINO)-3-CYANO-7-(TETRAHYDROFURAN-3-YL-OXY)QUINOLIN-6-YL)-4-(DIMETHYLAMINO)-BUT-2-ENAMIDE], in test [2], the GI50 turned out to be 1780 nM. With `CN(C)C/C=C/C(=O)Nc1cc2c(Nc3ccc(OCc4ccccn4)c(Cl)c3)c(C#N)cnc2cc1O[C@@H]1CCOC1` [Example 139, (R,E)-N-(4-(3-CHLORO-4-(PYRIDIN-2-YL-METHOXY)PHENYLAMINO)-3-CYANO-7-(TETRAHYDROFURAN-3-YL-OXY)QUINOLIN-6-YL)-4-(DIMETHYLAMINO)-BUT-2-ENAMIDE], the GI50 in test [2] amounted to 1900 nM. Moreover, the figures for the IC50 in test [1] and in test [3] were 1400 nM and 1130 nM, respectively. `C#Cc1cccc(Nc2c(C#N)cnc3cc(O[C@H]4CCOC4)c(NC(=O)/C=C/CN(C)C)cc23)c1` [Example 140, (S,E)-N-(3-CYANO-4-(3-ETHYNYLPHENYLAMINO)-7-(TETRAHYDROFURAN-3-YL-OXY)QUINOLIN-6-YL)-4-(DIMETHYLAMINO)-BUT-2-ENAMIDE] returned a 50% growth inhibitory concentration (GI50) in test [2] of 2300 nM. Moreover, the IC50 in test [1] turned out to be 7900 nM. For `CN(C)C/C=C/C(=O)Nc1cc2c(Nc3ccc(F)c(Cl)c3)c(C#N)cnc2cc1OC1CCOC1` (stereo not drawn) [Example 4, (E)-N-(4-(3-CHLORO-4-FLUOROPHENYLAMINO)-3-CYANO-7-(TETRAHYDROFURAN-3-YL-OXY)QUINOLIN-6-YL)-4-(DIMETHYLAMINO)-BUT-2-ENAMIDE], in that order: 3500 nM and 5800 nM. The compound `CN(C)C/C=C/C(=O)Nc1cc2c(Nc3ccc(OCc4ccccn4)c(Cl)c3)c(C#N)cnc2cc1O[C@H]1CCOC1` [Example 138, (S,E)-N-(4-(3-CHLORO-4-(PYRIDIN-2-YL-METHOXY)PHENYLAMINO)-3-CYANO-7-(TETRAHYDROFURAN-3-YL-OXY)QUINOLIN-6-YL)-4-(DIMETHYLAMINO)-BUT-2-ENAMIDE] returned a GI50 in test [2] of 1780 nM. For the same compound, the values for the IC50 in test [1] and in test [3] were 5600 nM and 1100 nM, respectively. Compound `CCN(CC)C/C=C/C(=O)Nc1cc2c(Nc3ccc(OCc4ccccn4)c(Cl)c3)c(C#N)cnc2cc1O[C@H]1CCOC1` [Example 150, (S,E)-N-(4-(3-CHLORO-4-(PYRIDIN-2-YL-METHOXY)PHENYLAMINO)-3-CYANO-7-(TETRAHYDROFURAN-3-YL-OXY)QUINOLIN-6-YL)-4-(DIETHYLAMINO)-BUT-2-ENAMIDE] registered an IC50 in test [1] of 3760 nM.

As to `CN(C)C/C=C/C(=O)Nc1cc2c(Nc3ccc(OCc4cccc(F)c4)c(Cl)c3)c(C#N)cnc2cc1OC1CCOC1` (stereo not drawn) [Example 9, (E)-N-(4-(4-(3-FLUOROBENZYLOXY)-3-CHLOROPHENYLAMINO)-3-CYANO-7-(TETRAHYDROFURAN-3-YL-OXY)QUINOLIN-6-YL)-4-(DIMETHYLAMINO)-BUT-2-ENAMIDE], the GI50 in test [2] was determined as 2100 nM. The IC50 in test [3] came to 636 nM. As to `C#Cc1cccc(Nc2c(C#N)cnc3cc(OC4CCOC4)c(NC(=O)/C=C/CN(C)C)cc23)c1` (stereo not drawn) [Example 5, (E)-N-(3-CYANO-4-(3-ETHYNYLPHENYLAMINO)-7-(TETRAHYDROFURAN-3-YL-OXY)QUINOLIN-6-YL)-4-(DIMETHYLAMINO)-BUT-2-ENAMIDE], growth in test [2] was halved (GI50) at 1680 nM. The same compound displayed a half-maximal inhibitory concentration (IC50) in test [1] of 9000 nM.

In test [2], `C#Cc1cccc(Nc2c(C#N)cnc3cc(O[C@@H]4CCOC4)c(NC(=O)/C=C/CN(C)C)cc23)c1` [Example 141, (R,E)-N-(3-CYANO-4-(3-ETHYNYLPHENYLAMINO)-7-(TETRAHYDROFURAN-3-YL-OXY)QUINOLIN-6-YL)-4-(DIMETHYLAMINO)-BUT-2-ENAMIDE] gave a GI50 of 1400 nM. Besides, half-maximal inhibition in test [1] (IC50) was put at 9100 nM. The matching figures for `CN(C)C/C=C/C(=O)Nc1cc2c(Nc3ccc(F)c(Cl)c3)c(C#N)cnc2cc1O[C@H]1CCOC1` [Example 142, (S,E)-N-(4-(3-CHLORO-4-FLUOROPHENYLAMINO)-3-CYANO-7-(TETRAHYDROFURAN-3-YL-OXY)QUINOLIN-6-YL)-4-(DIMETHYLAMINO)-BUT-2-ENAMIDE]: 2300 nM and 6600 nM.
